Entries after “also recorded” stand apart in the source; their conditions may differ. One block for each compound: values may come before it.
Columns and labels:
[1] = tested on: Normal Human Dermal Fibroblasts (NHDF); assay: TGF-β induced CTGF production on normal human dermal fibroblasts (ELISA); assay type: cell-based; settings: 10 ng/mL TGF-β, 48 h
Experimental: The effect of selected compounds on CTGF production was undertaken in NHDF. Cells were cultured in DMEM (0.5% FBS) with or without 10 ng/mL of TGF-β for 48 h in a humidified atmosphere of 95% air-5% carbon dioxide at 37° C. CTGF production in the culture medium was measured using the CTGF ELISA according to the manufacturer (Prepotech) recommendations. Table 3 represents the effect of selected representative compounds on the inhibition of TGF-βCTGF production in normal human dermal fibroblast (NHDF).

[2] = tested on: LPS-stimulated RAW264.7 (macrophage-like) cells; assay: IL-12 production on LPS-stimulated RAW264.7 cells (ELISA); assay type: cell-based; settings: in the presence of LPS
Experimental: The effect of selected compounds on IL-12 production was undertaken in RAW264.7 (macrophage-like) cells. RAW264.7 cells were cultured with 100 ng/mL of LPS in presence or absence of compounds for 21 h in a humidified atmosphere of 95% air-5% carbon dioxide at 37° C. IL-12 concentration in the culture medium was measured using the IL-12 ELISA according to the manufacturer (BD Biosciences) recommendations.

[3] = tested on: 5/6-nephrectomized (NX) rats; assay: 5/6-nephrectomy model of kidney fibrosis; assay type: in vivo, Wistar rats
Experimental: Male 6-week old Wistar rats were subjected to […] (5/6-NX) or sham operations. Under ketamine anesthesia (60 to 100 mg/kg, i.p.), two-thirds of the left kidney was removed on day 0 followed by the right total nephrectomy on day 7. Sham operated rats underwent exposition of the kidneys and removal of the perirenal fat. Animals that underwent the sham operation were given vehicle (saline) and were used as controls. 5/6-NX animals were treated by gastric gavage with the vehicle or Compound I administered daily at 10 and 50 mg/kg, respectively. Animals were treated from day 1 to 132 and were sacrificed at day 133. To evaluate renal function, creatinine clearance was measured at day 21 and every subsequent three weeks. Glomerular filtration rate (GFR) was then calculated. Serum urea, serum creatinine and kidney CTGF along with histological lesion score were also evaluated.

[4] = tested on: human proximal tubule epithelial cells (HK-2); assay: TGF-β induced epithelial to mesenchymal transition (EMT), real-time PCR; assay type: cell-based
Experimental: Further analysis was undertaken to determine the effect of Compound I on EMT. The effect of Compound I on TGF-β induced EMT was analyzed on human proximal tubule epithelial cells (HK-2). To assess the progression of EMT, the pro-epithelial marker E-cadherin and the mesenchymal/pro-fibrotic markers CTGF and collagen 1 were assayed by quantitative real-time PCR. To examine the prospective efficacy of Compound I in inhibiting TGF-β-induced EMT, we first verified the ability of TGF-β to induce EMT in HK-2 cells.

UUO rats = assay: Unilateral Ureteral Obstruction (UUO) rat model; assay type: in vivo, Sprague-Dawley rats
Experimental: The effect of treatment with Compound I was studied on the Unilateral Ureteral Obstruction (UUO) model, a model of kidney interstitial fibrosis. Sprague-Dawley rats were used at 6-8 weeks of age and 200-250 g in body weight. Rats were sedated by general anesthesia (isoflurane), then an incision was made in the left side of the back, and the left proximal ureter was exposed and triple-ligated. Sham-operated rats had their ureter exposed but not ligated. Rats were treated by oral gavage from day 1 to 13. Rats were sacrificed on day 14.

[5] = tested on: cyclophosphamide immunosuppressed mice; assay: Chemoprotection in cyclophosphamide immunosuppressed mice; assay type: in vivo, C57BL/6 mice; settings: 50 mg/kg oral day -3, -2, -1, cyclophosphamide 250 mg/kg iv day 0; for red bone marrow cell count: day +5 (FIG. 6); for white bone marrow cell count: day +5 (FIG. 7)
Experimental: Female C57BL/6 mice, 6 to 8 week old, were immunosuppressed by treatment with 250 mg/kg of cyclophosphamide administered intravenously at day 0. To examine the immunoprotective effect of Compound I and Compound II, mice were pre-treated orally at day −3, −2 and −1 with 50 mg/kg of each compound. Mice were sacrificed at day +5 by cardiac puncture and cervical dislocation. Then, a gross pathological observation of the femurs (as a source of bone marrow cells) was recorded. After the sacrifice, tissues were crushed in PBS buffer and cells were counted on a hemacytometer.

[6] = tested on: doxorubicin-induced nephrotoxicity mouse model; assay: Renal protection in doxorubicin-induced nephrotoxicity model; assay type: in vivo, C57BL/6 mice; settings: for serum albumin: oral prophylactic treatment day -3 to 10, doxorubicin 10 mg/kg iv day 0, day 11 (FIG. 2)
Experimental: C57BL/6 mice (6 to 10 week old) were treated with compounds prophylacticly from day −3 to day 10. Nephrotoxicity was induced by an intravenous injection of 10 mg/kg of doxorubicin at day 0. Serum albumin was monitored at day 11.

[7] = Compound alone, normal HK-2 cells
[8] = oral treatment, mRNA, dose-response

SMILES: CCCCCCCCC(Oc1ccc(C(=O)CCCCCCC)cc1)C(=O)[O-].[Na+] (racemic) [Compound I, Sodium (RS)-2-[4-Octanoylphenoxy]decanoate]
- inhibition at 7.5 µM ([1]; 7.5 μM): 41%
- IL-12 production under inflammatory conditions [2]: increases IL-12 production in vitro (RAW.264 cells) only when inflammation is present
- urinary excretion of MCP-1 ([3]; 10 mg/kg, day 21 to 105 (FIG. 13)): markedly reduced; also recorded: significantly decreased (from day 84)
- proteinuria ([3]; 10 mg/kg, day 63 and day 84 (FIG. 10)): reduction of proteinuria; also recorded: reduces proteinuria
- serum urea ([3]; 10 and 50 mg/kg oral, day 1 to day 132 (FIG. 11)): decreased serum urea
- GFR expressed as percent of improvement ([3]; 10 and 50 mg/kg oral, day 84 and day 105 (FIG. 9)): improvement of GFR at day 84 and day 105
- GFR expressed as percent of improvement (renal functions) ([3]; 10 and 50 mg/kg oral, day 126 (FIG. 9)): deteriorated but to a lesser extent than that observed in the non-treated animals
- serum creatinine ([3]; 10 and 50 mg/kg, day 126 (FIG. 12)): decreased serum creatinine
- interstitial and glomerular fibrosis/sclerosis (histology) ([3]; 10 or 50 mg/kg (FIG. 15)): reduction of interstitial and glomerular fibrosis/sclerosis
- CTGF expression in the remnant kidney (real-time PCR) ([3]; oral 10 mg/kg): decreases significantly
- TGF-β expression in the remnant kidney (real-time PCR) ([3]; oral 10 mg/kg): decreases significantly
- collagen 1 expression in the remnant kidney (real-time PCR) ([3]; oral 10 mg/kg): decreases significantly
- α-SMA expression in the remnant kidney (real-time PCR) ([3]; oral 10 mg/kg): decreases significantly
- kidney CTGF expression (Northern blot) ([3]; oral 10 mg/kg (FIG. 16)): reduction of connective tissue growth factor (CTGF) expression
- need for Ringer's lactate solution over the period of treatment ([3]; oral 50 mg/kg): did not require Ringer's lactate solution
- survival rate ([3]; oral 10 and 50 mg/kg (FIG. 17)): increases the survival rate
- kidney IL-12p40 level ([3]; oral 10 or 50 mg/kg, relative to untreated 5/6-NX group (FIG. 14)): significant (p=0.04 at 10 mg/kg) increase in IL-12p40
- GFR ([3]; oral, day 126, p=0.08 (FIG. 8)): improvement of GFR
- basal expression of CTGF [4, 7]: downregulate basal expression
- basal expression of collagen 1 [4, 7]: downregulate basal expression
- E-cadherin transcript expression ([4]; TGF-β induced EMT cells (FIG. 20)): upregulation of E-cadherin
- CTGF transcript expression ([4]; TGF-β induced EMT cells (FIG. 21)): downregulation
- collagen 1 transcript expression ([4]; TGF-β induced EMT cells (FIG. 22)): downregulation
- kidney MCP-1 (UUO rats; 50 mg/kg (FIG. 19)): significantly reduced
- serum albumin (UUO rats; oral 10 and 50 mg/kg, day 1 to 13 (FIG. 18)): prevented
- TGF-β expression in the kidney (UUO rats; oral treatment, mRNA): reduced TGF-β expression
- expression of CTGF in the kidney (UUO rats; [8]): significant dose-response inhibition
- expression of collagen 1 in the kidney (UUO rats; [8]): significant dose-response inhibition
- red bone marrow cell count [5]: significant increase in red bone marrow cell count
- white bone marrow cell count [5]: increase in white bone marrow cell count
- histological micrographs of doxorubicin-induced lesions ([6]; FIG. 4): protects the kidney against doxorubicin toxicity
- serum albumin [6]: inhibits the decrease of serum albumin
- serum CTGF ([6]; oral treatment, p<0.01 (FIG. 5)): significant inhibition of CTGF production in serum
- histological kidney lesions score ([6]; prophylactic treatment, day 11, glomerular and tubular level (FIG. 3)): reduces the kidney lesions at the glomerular and tubular level

SMILES: CCCCCCCC(=O)c1ccc2c(c1)CC(C(=O)O)C2 (racemic) [Compound III, Sodium (RS)-5-Octanoylindane-2-carboxylate]
- inhibition at 62.5 µM ([1]; 62.5 μM): 45%

- melting point: 262 to 278 °C
SMILES: CCCCCCCCC(Oc1ccc(C(=O)CCC)cc1)C(=O)[O-].[Na+] (racemic) [Compound IX, Sodium (RS)-2-[4-Butyrylphenoxy]decanoate]

- melting point: 165 to 170 °C
SMILES: CCCCCCCC(=O)c1ccc(OC(CCCCCC)C(=O)[O-])cc1.[Na+] (racemic) [Compound VIII, Sodium (RS)-2-[4-Octanoylphenoxy]octanoate]

- melting point: 275 to 280 °C
SMILES: CCCCCCCCC(Oc1ccc(C(=O)CCCCC)cc1)C(=O)[O-].[Na+] (racemic) [Compound X, Sodium (RS)-2-[4-Hexanoylphenoxy]decanoate]

SMILES: CCCCCCCC(=O)c1cccc2c1CC(C(=O)O)C2 (racemic) [Compound XXVI, Sodium (RS)-4-Octanoylindane-2-carboxylate]
- inhibition at 100 µM ([1]; 100 μM): 59%

SMILES: CCCCCCCC(=O)c1cccc(C(=O)[O-])c1.[Na+] [Compound II, Sodium 3-Octanoylbenzoate]
- red bone marrow cell count [5]: significant increase in red bone marrow cell count
- white bone marrow cell count [5]: increase in white bone marrow cell count
- serum albumin [6]: inhibits the decrease of serum albumin

From patent US9475750B2, “Phenylketone carboxylate compounds and pharmaceutical uses thereof” (PROMETIC BIOSCIENCES INC., priority 2010, dated 2016)
